In patent publication US11999964B2, “Synthetic mammalian signaling circuits for robust cell population control” (California Institute of Technology, priority 2020, dated 2024):

System: cheaters from the negative feedback condition
Assay: AP1903 killing of cheaters from the negative feedback condition
Format: cell-based, Hamster
Conditions: 50 nM AP1903, two days, even in the presence of NAA
Text: FIGS. 12A-12C depict non-limiting exemplary data showing the paradoxical circuit allows mutationally robust population control. (FIG. 12A) Cell lines evolved under paradoxical conditions are phenotypically different from cheaters evolved under negative feedback. Each dot represents one culture. Cells evolved under the negative feedback conditions form a tight cluster, which is fitted with a 2-D gaussian to show the 95 percentile (orange dashed ellipse). […] (FIG. 12B) Under paradoxical, but not negative feedback, conditions, mutations that reduce auxin sensing lead to apoptosis in cheaters (red inhibitory arrow), preventing unregulated growth and mutational escape. […] Cells were incubated with different levels of NAA for 6 hours, and then 50 nM of AP1903 was added (except in controls) for another two days. Confluencies were measured and normalized to the no AP1903 control (n=3).

## CC[C@H](C(=O)N1CCCC[C@H]1C(=O)O[C@H](CCc1ccc(OC)c(OC)c1)c1cccc(OCC(=O)NCCNC(=O)COc2cccc([C@@H](CCc3ccc(OC)c(OC)c3)OC(=O)[C@@H]3CCCCN3C(=O)[C@@H](CC)c3cc(OC)c(OC)c(OC)c3)c2)c1)c1cc(OC)c(OC)c(OC)c1 [AP1903]
  Effect of iCasp9 activation by AP1903 on cheaters: kills cheaters
